# Assay results reported in patent publication US20060111289A1, “Compositions and methods of using Alpha-fetoprotein growth inhibitory peptides” (Serometrix, LLC,, priority 2004, published 2006).
# Where a SMILES comes first, the peptide text is derived from it.
# Legend:
# [1] = test system: immature mouse uterine growth; experiment: E2-activated immature mouse uterine growth assay; assay type: in vivo; set-up: % Inhibition Of Activity: Uterine Growth: concentration or dose not given beside the values; settings: for Inhibition in the mouse uterine assay: linear versus cyclic configuration
# Method: FIG. 3 presents exemplary data showing the growth suppressive activities of the oligomeric forms of P149, cyclic versus linear, are depicted in various in vitro and in vivo models. Biological activity was determined by three growth-dependent bioassays, namely; • Panel-A and A1) an immature rodent uterine bioassay; • Panel-B and B 1) an in vitro MCF-7 foci assay; • Panel-C and C1) an in vitro tumor cell cytostatic assessment. […] See text for details. Scrambled peptide=P327. […]
# [2] = test system: cell cycle gene mRNA in MCF-7 cells; experiment: Quantitative RT-PCR of cell cycle gene mRNA in MCF-7 cells; assay type: cell-based, human; settings: for Cyclin E1 mRNA levels, Fold Decrease: eight day treatment
# Method: MCF-7 cell cultures grown in charcoal-stripped medium for 24 hours were seeded in 6-well plates and allowed to attach for 24 hours before treatment with 1×10^−7M of the cyclic, linear, or scrambled peptide, or a vehicle control for either 24 or 48 hours. Total RNA was isolated using TriReagent (Molecular Research Center Inc.) and quantified using the Genequant Pro (Ambersham Biosciences).
# Standard curves for each primer were prepared and RNA samples were reverse transcribed and screened for the genes of interest using the One Step RT-PCR kit (Qiagen Inc.) in the Roche Light Cycler. Each sample was run in duplicate, and the entire experiment was replicated resulting in two independent samples for each treatment.
# MCF-7 cell cultures were maintained in medium with charcoal-stripped bovine serum for 24 hours prior to seeding in 6-well plates. Seeding densities varied with treatment time and were aimed at obtaining 80% confluent cell cultures at the time of harvesting; after 24, 48, or 72 hours of treatment. RNA isolation was performed as above.
# MCF-7 cell cultures were maintained as above and seeded in 6-well plates at a low seeding density to obtain cell cultures that were 80% confluent at the end of the treatment. Cell cultures were treated with various concentrations of the cyclic peptide 24 hours after seeding and then every two days until harvesting the cells at day eight post-treatment RNA was isolated from each treatment.
# MCF-7 cells were seeded in DC5 medium into each well of two 6-well plates and allowed to attach for 24 hours at which point the seeding medium was exchanged for serum-free medium for 24 hours. After 24 hours in serum-free medium the cells were re-fed with DC5-stripped medium containing either the vehicle control (DMSO) or GIP (from 1×10^−14 to 1×10^−5 M). Cells were re-fed every 48 hours until they were harvested after eight days of treatment and RNA was isolated. The entire procedure was repeated resulting in two independent RNA isolations. The quantity and quality of RNA isolated from each eight-day exposure for each of the concentrations are shown below. The quantity and quality of RNA obtained from these exposures is sufficient to determine the RNA expression levels of numerous genes.
# MCF-7 cells were seeded at 1×10^6 cells per well in 6-well plates. The cells were incubated for 192 h in medium containing charcoal/dextran-treated BCS and test compounds described above in the proliferation assay. Peptide was administered each day for 8 days. Total RNA was isolated using the RNAqueous 4 PCR kit (Ambion Inc.) or Tri Reagent (Molecular Research Center, Inc.). The quality of the RNAs were assessed by electrophoresis on denaturing agarose gels and were quantified at 260 nm with the Genequant Pro (Amersham Biosciences).
# Details for the quantitative RT-PCR protocol were previously reported. Fasco et al., “Quantitative RNA-polymerase chain reaction-DNA analysis by capillary electrophoresis and laser-induced fluorescence” Anal. Biochem. 224:140-147 (1995). Briefly, RNA samples were reverse transcribed and amplified using the One Step RT-PCR kit (Qiagen Inc.) in the Roche Light Cycler. Total RNA was diluted to […] for all genes assayed except for 28S, which was diluted to 0.001 mg/ml. Diluted total RNA ([…]) was incubated with Qiagen RT-PCR master mix and was reverse transcribed for 30 min at 50° C. Following reverse transcription, samples were heated for 15 min at 95° C. to activate the HotStarTaq DNA polymerase and to simultaneously inactivate the reverse transcriptase. Gozgit et al., “Differential action of polycyclic aromatic hydrocarbons on endogenous estrogen-responsive genes and on a transfected estrogen-responsive reporter in MCF-7 cells” Toxicol. & Appl. Pharmacol. 196:58-67 (2004).
# Gene-specific primers ([…]) were used for the following: Cyclin D3, D1, CDK2, CDK4, CDK6, RB1, Ki67, Cyclin E1, Cyclin BI, and with B-Actin serving as housekeeping (control) gene. […]
# MCF-7 cells = experiment: Estrogen-dependent MCF-7 foci formation assay; assay type: cell-based, human; set-up: % Inhibition Of Activity: MCF-7 foci formation: concentration or dose not given beside the values
# Text: Mizejewski et al., “Alpha-fetoprotein derived synthetic peptides: assay of an estrogen-modifying regulatory segment” Mol Cell Endocrinol 118:15-23 (1996). The P149 peptide inhibited the formation of tumor cell foci formed as a result of the accumulation of breast cancer cells which clump together due to loss of contact inhibition.
# MCF-7 and GI-101 cells = experiment: ATP luminescence cytostatic assay (6 days); assay type: cell-based, human; settings: peptide 10^−12 to 10^−8 M
# Text: FIG. 2 presents exemplary data for both in vivo and in vitro growth suppressive activities of the GIP-derived P149 and control peptides are depicted in GI-101 human ductal breast carcinoma and in MCF-7 human glandular breast carcinoma. • Panels A and A2: GI-101 and MCF-7 xenograft in nude mice administered P149 time-release pellets for 60 days and 30 days, respectively (N=5 mice/group). • Panels B and B2: GI-101 and MCF-7 in cell cultures treated with P149 and P187 at concentrations from 10-8 to 10-12 M for 6 days and assayed by ATP luminescence reagent employing a luciferin-luciferase system. The ATP assay, used to distinguish between cytostasis versus cytotoxicity, was used to confirm that P149 was cytostatic in its cell inhibitory activity at 6 days (see text for details).
# In order to confirm whether P149 was indeed cytostatic, and not cytotoxic, an ATP-based cytostatic assay was performed which measures the decrease in cytosolic ATP during drug (i.e., for example, GIP peptide) treatment. This ATP luminescence assay has long been employed to distinguish between cytostatic versus cytotoxic chemotherapeutic sensitivity of drugs. […] After incubation of the cell cultures for 6 days, cytosolic ATP was extracted, stabilized, and quantitated from a standard curve produced from Berthold LB-96P luminometer readings using a luciferin-luciferase counting reagent.
Molecule,Inhibition in the mouse uterine assay [1],Inhibition in the mouse uterine assay ([1]; listed as cyclic peptide),"mRNA levels of CDK2, CDK4, CDK6, Cyclin D1, CCND3, RB1 ([2]; 1×10^−7 M, 24 or 48 hours)","Cyclin D1 mRNA, fold increase ([2]; 8 days)","Ki67, cdk2, cdk6, and Cyclin B1 mRNA levels ([2]; 8 days)","Rb1 mRNA, fold increase ([2]; 8 days)","cdk4 mRNA, fold increase ([2]; 8 days)","Expression of Cyclin D1, RB1 and CDK4 ([2]; 8 days, 0.1 nM (Cyclin D1 and RB1) or 1 pM (CDK4))","Cyclin-E mRNA, fold reduction ([2]; 8 days, 10^−8 to 10^−12 M)","Expression levels of Cyclin E1 ([2]; 8 days, each of the five concentrations tested)","Ki67, cdk2, cdk6, and Cyclin B1 mRNA levels ([2]; 8 days, listed as cyclic peptide)","Cyclin E1 mRNA levels, Fold Decrease ([2]; concentration 1e−08 (10 nM))","Cyclin E1 mRNA levels, Fold Decrease ([2]; concentration 1e−09)","Cyclin E1 mRNA levels, Fold Decrease ([2]; concentration 1e−10)","Cyclin E1 mRNA levels, Fold Decrease ([2]; concentration 1e−11)","Cyclin E1 mRNA levels, Fold Decrease ([2]; concentration 1e−12 (1 pM))",Inhibition in the MCF-7 foci-assay (MCF-7 cells; linear versus cyclic configuration),"% Inhibition Of Activity: Uterine Growth ([1]; mouse, in vivo)",Growth inhibition / decrease in cytosolic ATP in the ATP luminescence assay (MCF-7 and GI-101 cells),% Inhibition Of Activity: MCF-7 foci formation (MCF-7 cells)
"CC[C@H](C)[C@H](NC(=O)[C@@H]1CSSC[C@H](NC(=O)[C@H](C)NC(=O)[C@H](CC(C)C)NC(=O)[C@H](CC(C)C)NC(=O)[C@H](CCCCN)NC(=O)[C@H](CC(=O)O)NC(=O)[C@H](CCC(=O)O)NC(=O)[C@H](CO)NC(=O)[C@@H](N)CC(C)C)C(=O)NCC(=O)N[C@@H](CCC(=O)O)C(=O)NCC(=O)N[C@@H](C)C(=O)N[C@@H](C)C(=O)N[C@@H](CC(=O)O)C(=O)N[C@@H]([C@@H](C)CC)C(=O)N[C@@H]([C@@H](C)CC)C(=O)N[C@@H]([C@@H](C)CC)C(=O)NCC(=O)N[C@@H](Cc2c[nH]cn2)C(=O)N[C@@H](CC(C)C)C(=O)N1)C(=O)N[C@@H](CCCNC(=N)N)C(=O)N[C@@H](Cc1c[nH]cn1)C(=O)N[C@@H](CCC(=O)O)C(=O)N[C@@H](CCSC)C(=O)N[C@H](C(=O)N1CCC[C@H]1C(=O)N[C@H](C(=O)N[C@@H](CC(N)=O)C(=O)N1CCC[C@H]1C(=O)NCC(=O)N[C@H](C(=O)O)C(C)C)C(C)C)[C@@H](C)O [Cyclic GIP] (HELM PEPTIDE1{L.S.E.D.K.L.L.A.C.G.E.G.A.A.D.I.I.I.G.H.L.C.I.R.H.E.M.T.P.V.N.P.G.V}$PEPTIDE1,PEPTIDE1,9:R3-22:R3$$$V2.0; N-terminus and C-terminus assumed)",20-25%,only marginally inhibitory,did not result in significant changes in mRNA levels,1.71 fold,no effect,2.4 fold,2.4 fold,increased about two-fold,2.1 to 4.6 fold,greatly reduced,little changes in mRNA expression levels,4.58 fold,3.03 fold,2.07 fold,2.36 fold,3.26 fold,20-25%,–,–,–
"KDFIHKQGVALQTMKQELINLVKELVKPQIEAVADFSGLL (listed as Homo sapiens) [P192, reference compound]",–,–,–,–,–,–,–,–,–,–,–,–,–,–,–,–,–,0%,not significantly different from the non-treated control,0%
